Patent US10487056B2, “Small molecule androgen receptor inhibitors and methods of use thereof” (GEORGETOWN UNIVERSITY, priority 2015, dated 2019)

Experiments:
Format in all cases: cell-based
22Rv1 cells [1] = experiment: MTT cell viability assay, 22Rv1 cells; details: 3 days
Method: Cells were treated in the manner indicated below for the specified period of time. MTT assay was performed as described in Amin et al., Mol. Cancer Ther., 13:341-52 (2014).
To determine the effects of SH-I-125 on prostate cancer cell growth, 22Rv1 cells were treated with SH-I-125 and cell viability was measured after a period of 3 days. […]. In comparison, non-tumorigenic primary prostate epithelial cells (PrEC) retained 80% viability in the presence of a similar range of doses of SH-I-125, showing that tumorigenic cells are more susceptible to the growth inhibitory properties of SH-I-125 compared to non-tumorigenic cells (FIG. 8B). […] Staurosporine was used as a positive control for cell death induction in live and dead assays (FIG. 9C).

AR [2] = experiment: Immunofluorescence staining of AR in 22Rv1-MDVR cells; details: MDV3100 10 μM, ARN509 10 μM or SH-I-125 1 μM, 24 hours
Method: […]. AR and AR-V7 expression levels were assessed.
(§1) Immunofluorescence staining was performed as described in Amin et al., Mol. Cancer Ther., 13:341-52 (2014).

AR [3] = experiment: 22Rv1-MDVR-ARE-luc luciferase reporter assay; details: 22Rv1-MDVR-ARE-luc cells, range of doses, 24 hours
Method: (§2) […]. Luciferase activity was measured and plotted as a percentage of control. Data represent the mean of three independent experiments with quadruplicate samples; bars, SEM. ***, p value <0.001 determined by ANOVA.
(§3) VCaP-MDVR and 22Rv1-MDVR stably expressing ARE-luciferase construct (VCaP-MDVR-ARE-luc and 22Rv1-MDVR-ARE-luc) were generated as described above in the Materials and Methods section. […].

22Rv1 cells [4] = experiment: Caspase-Glo 3/7 activity assay, 22Rv1 cells; details: 3 days
Method: 22Rv1 cells were treated with SH-I-125 (1 μM) for one, two, or three days, and caspase 3/7 activity was measured using Caspase-Glo 3/7 substrates. […] Data represent mean of three independent experiments with quadruplicate samples; bars, SEM. ***, p value <0.001 determined by ANOVA.
(§4) Caspase 3/7 activity was measured using Caspase-Glo 3/7 substrates. Data represent mean of three independent experiments with quadruplicate samples; bars, SEM. ***, p value <0.001 determined by ANOVA.
[…]; Madison, Wis.).
. […] Staurosporine was used as a positive control for apoptosis induction (FIG. 10B).

AR [5] = experiment: 22Rv1-ARE-luc androgen-response element luciferase reporter assay; details: range of doses, 24 hours
Method: VCaP and CWR22Rv1 (referred to as 22Rv1) cells were transduced with ARE-luciferase Cignal Lenti Pathway Reporter (Qiagen; Valencia, Calif.) and cultured as described above in the presence of 1 μg/mL puromycin. Following antibiotic selection, cells stably expressing ARE-luciferase were isolated, cloned and cultured to generate a stable ARE-reporter cell lines.

22Rv1-MDVR cells = experiment: Cell viability (MTT), 22Rv1-MDVR cells; details: MDV3100, ARN-509 10 μM, SH-I-125 range, 3 days
Method: (§6) Cell viability was measured using the MTT assay.

VCaP-MDVR cells = experiment: Cell viability (MTT), VCaP-MDVR cells; details: MDV3100, ARN-509 10 μM, SH-I-125 range, 3 days
Method: as §6

AR and AR-V7 = experiment: Western blot of AR and AR-V7 levels in 22Rv1 cells; details: 3 days, SH-I-125 at 1 μM
Method: AR levels were assessed by Western blotting. β-actin was used as a loading control.
(§5) AR and AR-V7 levels were assessed. β-actin was used as a loading control.
as §5
MG132 (5 μM), a known proteasome inhibitor, was added on Day 2. AR expression was assessed by Western blotting. β-actin was used as a loading control.

VCaP cells = experiment: Caspase-Glo 3/7 activity assay, VCaP cells; details: 3 days
Method: as §4

AR [6] = experiment: VCaP-MDVR-ARE-luc luciferase reporter assay; details: VCaP-MDVR-ARE-luc cells, range of doses, 24 hours
Method: as §2, §3

AR [7] = experiment: Immunofluorescence staining of AR and PSA in VCaP-MDVR cells; details: DHT 1 nM, MDV3100 10 μM or SH-I-125 1 μM, 24 hours
Method: AR and PSA expression levels were assessed.
as §1

| SMILES | prevention of growth compared with SH-I-125 (22Rv1 cells [1]) | AR nuclear localization (AR [2]) | luciferase activity (AR activity) (AR [3]) | caspase 3/7 activity (22Rv1 cells [4]) | inhibitory effect on ARE-luciferase activity (plateau) (AR [5]) [%] | cell growth / viability (22Rv1-MDVR cells) | cell growth / viability (VCaP-MDVR cells) | cellular AR and AR-V7 levels (AR and AR-V7) | caspase 3/7 activity (VCaP cells) | reduction of luciferase activity (AR [6]) [%] | AR expression / nuclear localization (AR [7]) | PSA expression (AR [7]) |
| --- | --- | --- | --- | --- | --- | --- | --- | --- | --- | --- | --- | --- |
| CNC(=O)c1ccc(N2C(=S)N(c3cnc(C#N)c(C(F)(F)F)c3)C(=O)C23CCC3)cc1F [ARN-509] | significantly less effective | unaffected | unchanged from control | did not have a similar effect | 50 | continued proliferation | continued proliferation | no effect | did not have a similar effect | 50 | – | – |
| CNC(=O)c1ccc(N2C(=S)N(c3ccc(C#N)c(C(F)(F)F)c3)C(=O)C2(C)C)cc1F [MDV3100] | significantly less effective | unaffected | unchanged from control | did not have a similar effect | – | continued proliferation | continued proliferation | no effect | did not have a similar effect | 50 | AR expression was not attenuated | continued to inhibit PSA expression |
